What all share (assay type): cell-based
The subject of assay [1] is LOX IMVI. Description: NCI 60 cell line screen. The settings on record: Homo sapiens, Melanoma, read-out: Percent growth. How it is done: (§1) Anticancer profiling over a panel of 60 cancer cell lines was carried out at the National Cancer Institute (NCI), Bethesda, Maryland, USA, https://dtp.cancer.gov/discovery_development/nci-60/methodology.htm (Last visit 22 September 2021), using the standard procedure (detailed procedure is located in the Supplementary Information page 50 s).
(§2) NCI standard procedure for 60 cell lines assay
(§3) The human tumor cell lines of the cancer screening panel are grown in RPMI 1640 mediu m containing 5% fetal bovine serum and 2 mM L-glutamine. For a typical screening experiment, cells are inoculated into 96 well microtiter plates in 100 μL at plating densities ranging from 5,000 to 40,000 cells/well depending on the doubling time of individual cell lines. After cell inoculation, the microtiter plates are incubated at 37° C, 5 % CO2, 95 % air and 100 % relative humidity for 24 h prior to addition of experimental drugs.
(§4) After 24 h, two plates of each cell line are fixed in situ with TCA, to represent a measurement of the cell population for each cell line at the time of drug addition (Tz). Experimental drugs are solubilized in dimethyl sulfoxide at 400-fold the desired final maximum test concentration (10 µM) and stored frozen prior to use. At the time of drug addition, an aliquot of frozen concentrate is thawed and diluted to twice the desired final maximum test concentration with co mp lete medium containing 50 μg/ml gentamicin. Additional four, 10-fold or ½ log serial dilutions are made to provide a total of five drug concentrations plus control. Aliquots of 100 μl of these different drug dilutions are added to the appropriate microtiter wells already containing 100 μl of medium, resulting in the required final drug concentrations.
(§5) Following drug addition, the plates are incubated for an additional 48 h at 37°C, 5 % CO2, 95 % air, and 100 % relative humidity. For adherent cells, the assay is terminated by the addition of cold TCA. Cells are fixed in situ by the gentle addition of 50 μl of cold 50 % (w/v) TCA (final concentration, 10 % TCA) and incubated for 60 minutes at 4°C. The supernatant is discarded, and the plates are washed five times with tap water and air dried. Sulforhodamine B (SRB) solution (100 μl) at 0.4 % (w/v) in 1 % acetic acid is added to each well, and plates are incubated for 10 minutes at room temperature. After staining, unbound dye is removed by washing five times with 1 % acetic acid and the plates are air dried. Bound stain is subsequently solubilized with 10 mM trizma base, and the absorbance is read on an automated plate reader at a wavelength of 515 nm. For suspension cells, the methodology is the same except that the assay is terminated by fixing settled cells at the bottom of the wells by g ently adding 50 μl of 80 % TCA (final concentration, 16 % TCA). Using the seven absorbance measurements [time zero, (Tz), control growth, (C), and test growth in the presence of drug at the five concentration levels (Ti)], the percentage growth is calculated at each of the drug concentrations levels. Percentage growth inhibition is calculated as:
(§6) [(Ti-Tz)/(C-Tz)] x 100 for concentrations for which Ti>/=Tz
(§7) [(Ti-Tz)/Tz] x 100 for concentrations for which Ti<Tz.
(§8) Three dose response parameters are calculated for each experimental agent. Growth inhibition of […]
(§9) resulting in a 50% reduction in the net protein increase (as measured by SRB staining) in control cells during the drug incubation. The drug concentration resulting in total growth inhibition […]
(§10) (TGI) is calculated from Ti = Tz.

The subject of assay [2] is A549/ATCC. The assay is described as follows: NCI 60 cell line screen. The settings on record: Homo sapiens, Non-Small Cell Lung Cancer, read-out: Percent growth. The method, then: as §1, §2, §3, §4, §5, §6, §7, §8, §9, §10
Assay [3] has as its system HCC-2998. Description: NCI 60 cell line screen. The conditions noted are these: Homo sapiens; HCC-2998, Colon Cancer; read-out: Percent growth. How it is done:
as §1, §2, §3, §4, §5, §6, §7, §8, §9, §10

For assay [4], the system named is ACHN. The assay is described as follows: NCI 60 cell line screen. The conditions noted are these: Homo sapiens, Renal Cancer, read-out: Percent growth. How it is done: as §1, §2, §3, §4, §5, §6, §7, §8, §9, §10
Assay [5] deals with HL-60(TB). The assay is described as follows: NCI 60 cell line screen. The settings on record: Homo sapiens, Leukemia, read-out: Percent growth. How it is done:
as §1, §2, §3, §4, §5, §6, §7, §8, §9, §10

Assay [6] relates to SK-MEL-28. The assay is described as follows: NCI 60 cell line screen. The conditions noted are these: Homo sapiens; SK-MEL-28, Melanoma; read-out: Percent growth. How it is done:
as §1, §2, §3, §4, §5, §6, §7, §8, §9, §10

The subject of assay [7] is MDA-MB-435. Description: NCI 60 cell line screen. The settings on record: Homo sapiens; MDA-MB-435, Melanoma; read-out: Percent growth. The method, then: as §1, §2, §3, §4, §5, §6, §7, §8, §9, §10
In assay [8] the test system is COLO 205. The assay is described as follows: NCI 60 cell line screen. The conditions noted are these: Homo sapiens; COLO 205, Colon Cancer; read-out: Percent growth. The method, then:
as §1, §2, §3, §4, §5, §6, §7, §8, §9, §10

Assay [9] deals with HOP-62. The assay is described as follows: NCI 60 cell line screen. The conditions noted are these: Homo sapiens; HOP-62, Non-Small Cell Lung Cancer; read-out: Percent growth. The method, then:
as §1, §2, §3, §4, §5, §6, §7, §8, §9, §10

In assay [10] the test system is BT-549. The assay is described as follows: NCI 60 cell line screen. The conditions noted are these: Homo sapiens; BT-549, Breast Cancer; read-out: Percent growth. The method, then:
as §1, §2, §3, §4, §5, §6, §7, §8, §9, §10

Assay [11] deals with SW-620. Description: NCI 60 cell line screen. The conditions noted are these: Homo sapiens; SW-620, Colon Cancer; read-out: Percent growth. How it is done:
as §1, §2, §3, §4, §5, §6, §7, §8, §9, §10

For assay [12], the system named is MALME-3M. The assay is described as follows: NCI 60 cell line screen. The conditions noted are these: Homo sapiens, Melanoma, read-out: Percent growth. How it is done:
as §1, §2, §3, §4, §5, §6, §7, §8, §9, §10

In assay [13] the test system is CCRF-CEM. The assay is described as follows: NCI 60 cell line screen. The settings on record: Homo sapiens, Leukemia, read-out: Percent growth. The method, then:
as §1, §2, §3, §4, §5, §6, §7, §8, §9, §10

The subject of assay [14] is A375 cells. The assay is described as follows: Antiproliferative MTT assay. The settings on record: Homo sapiens, A-375, 48 h, mean ± S.D. of two experiments. The method, then: (§11) The effect of final target compounds over A375 and SK-MEL-5 was performed using reported procedures (detailed procedure is located in the Supplementary Information page 51s). […]
(§12) Evaluation of the Antiproliferative Activity Against A375 and SK-MEL-5
(§13) A375 and SK-MEL-5 cells were purchased from American Type Culture Collection (ATCC, Ro ckv ille, MD, USA) and maintained in Dulbecco’s modified eagle medium (DMEM, Welgene, Daegu, Republic of Korea) supplemented with 10% fetal bovine serum (FBS, Welgene, Daegu, Republic of Korea) and 1% penicillin/streptomycin (Welgene, Daegu, Republic of Korea) in a hu midified atmo sphere with 5% CO2 at 37 °C. Both cells were taken from culture substrate with 0.05% trypsin-0.02% EDTA and plated at a density of 5 × 10^3 cells/well in 96 well plates and then incubated at 37 °C fo r 24 h in a hu midified atmo sphere with 5% CO2 prior to treatment with various concentrations (3-fold serial dilution, 12 points) of the tested compounds. The cells were incubated for 48 h after treatment with the test compounds. The cell viability was assessed by the conventional 3-(4,5-dimethylthiazol-2-yl)-2,5-diphenyltetrazolium bromide (MTT) reduction assay. MTT assays were carried out with CellTiter 96® (Promega) according to the manufacturer’s instructions. The absorbance at 590 nm was recorded using EnVision 2103 (Perkin Elmer; Bo ston , MA, USA). The IC50 values were calculated using GraphPad Prism 4.0

Assay [15] concerns SK-MEL-5 cells. The assay is described as follows: Antiproliferative MTT assay. The conditions noted are these: Homo sapiens, 48 h, mean ± S.D. of two experiments. How it is done: as §11, §12, §13

In the case of `Cc1ccc(S(=O)(=O)NCCNc2nccc(-n3cnc4ccccc43)n2)cc1` [12g, N-(2-((4-(1H-benzo [d]imidazol-1-yl)pyrimidin-2-yl)amino)ethyl)-4-methyl benzenesulfonamide], the activity at 10 µM in [1] stood at 75.2%; in assay [2], 82.4%; in assay [3], 93.1%; in assay [4] it was 73%; in assay [5] it was 91.2%; in assay [6] it was 94.4%. Also, the activity at 10 µM in assay [7] is 84.1%; in [8], 86.8%; in [9] it was 69.6%; in assay [10], 63.7%; in assay [11] it was 90.8%; in [12] it was 90.2%. In addition, in assay [13], the activity at 10 µM stood at 69.5%. The IC50 in assay [14] stood at 7.22 ± 0.23 µM; in [15], 8.25 ± 0.12 µM.
In the case of `O=S(=O)(NCCCNc1nccc(-n2cnc3ccccc32)n1)c1ccc(C(F)(F)F)cc1` [12l, N-(3-((4-(1H-benzo [d]imidazol-1-yl)pyrimidin-2-yl)amino)propyl)-4-(trifluoromethyl) benzenesulfonamide], the activity at 10 µM in assay [1] came to 72.3%; in assay [2], 79%; in assay [3], 84.8%; in [4], 79%; in [5], 89%; in assay [6] it was 103%. The activity at 10 µM in assay [7] amounted to 72.1%; in assay [8] it was 78.2%; in assay [9], 77.3%; in assay [10], 62.9%; in assay [11], 99.5%; in assay [12] it was 94%. In addition, the activity at 10 µM in [13] was 51.9%. The IC50 in [14] worked out at 1.85 ± 0.11 µM; in assay [15], 2.02 ± 0.09 µM.
As for `COc1ccc(S(=O)(=O)NCCCNc2nccc(-n3cnc4ccccc43)n2)cc1` [12m, N-(3-((4-(1H-benzo [d]imidazol-1-yl)pyrimidin-2-yl)amino)propyl)-4-methoxy benzenesulfonamide], the activity at 10 µM in assay [1] stood at 93.4%; in assay [2], 106%; in assay [3] it was 111%; in [4], 88.2%; in [5], 110%; in [6] it was 106%. Besides, the activity at 10 µM in assay [7] was 98.7%; in assay [8], 108%; in assay [9] it was 94.8%; in [10] it was 92.9%; in [11], 104%; in assay [12], 107%. Moreover, the activity at 10 µM in assay [13] amounted to 91.4%. The IC50 was determined as 13.1 ± 0.27 µM in assay [14] and 14.6 ± 0.71 µM in assay [15].
`O=S(=O)(NCCNc1nccc(-n2cnc3ccccc32)n1)c1ccc(Br)cc1` [12d, N-(2-((4-(1H-benzo [d]imidazol-1-yl)pyrimidin-2-yl)amino)ethyl)-4-bromobenzenesulfonamide]: the activity at 10 µM was found to be 99.1% in assay [1]; 100% in [2]; 103% in [3]; 93.6% in assay [4]; 114% in assay [5]; 108% in [6]. Moreover, the activity at 10 µM in assay [7] turned out to be 108%; in assay [8] it was 107%; in assay [9] it was 87.2%; in assay [10], 115%; in assay [11] it was 110%; in assay [12], 103%. The activity at 10 µM in assay [13] was found to be 101%. Besides, the IC50 in [14] is 11.8 ± 0.71 µM; in assay [15], 19.7 ± 0.51 µM.
Take `O=S(=O)(NCCCNc1nccc(-n2cnc3ccccc32)n1)c1ccc(Cl)cc1` [12j, N-(3-((4-(1H-benzo [d]imidazol-1-yl)pyrimidin-2-yl)amino)propyl)-4-chloro benzenesulfonamide]: the activity at 10 µM in assay [1] came out at 107%; in [2] it was 99%; in [3], 108%; in [4], 94.1%; in assay [5] it was 108%; in assay [6] it was 108%. The activity at 10 µM is 95.5% in [7]; 110% in assay [8]; 101% in assay [9]; 90.1% in [10]; 110% in assay [11]; 103% in [12]. For the same molecule, the activity at 10 µM in assay [13] was determined as 91.7%. Moreover, the IC50 in [14] worked out at 10.4 ± 0.24 µM; in assay [15] it was 12.9 ± 0.72 µM.
`O=S(=O)(NCCCNc1nccc(-n2cnc3ccccc32)n1)c1ccc(F)cc1` [12i, N-(3-((4-(1H-benzo [d]imidazol-1-yl)pyrimidin-2-yl)amino)propyl)-4-fluorobenzenesulfonamide]: the activity at 10 µM in assay [1] turned out to be 74%; in [2], 88.8%; in [3] it was 102%; in [4], 81.2%; in assay [5], 90.9%; in [6], 97.9%. Moreover, the activity at 10 µM in [7] stood at 64.6%; in assay [8], 86%; in assay [9] it was 82.7%; in [10], 34.9%; in assay [11], 96.2%; in assay [12], 86.1%. Further, the activity at 10 µM in [13] is 49%. For the same molecule, the 50% inhibitory concentration (IC50) in [14] was 1.95 ± 0.13 µM; in assay [15], 2.36 ± 0.21 µM.

The term IC50 denotes the concentration at which inhibition is half-maximal.

The values above are taken from article PMC8508980, “Design, Synthesis and Anticancer Profile of New 4-(1H-benzo[d]imidazol-1-yl)pyrimidin-2-amine-Linked Sulfonamide Derivatives with V600EBRAF Inhibitory Effect” (International Journal of Molecular Sciences, 2021).
